# Values quoted from earlier work, collected in patent US11596701B2, “Disinfection method using a disinfection agent formed in situ by reaction of H2O2 and NO2-” (LEIBNIZ-INSTITUT FÜR PLASMAFORSCHUNG UND TECHNOLOGIE E.V., priority 2018, dated 2023).
# Where two headings read alike, the source gives them in different places.
# Settings: room temperature
substance,measurement,setting,value
peroxynitric acid,half-life,"Lammel et al., 1990",about 3 minutes
same,half-life,as stated in US 20170172149,about 10 minutes
